Experiments:
[1] = test system: Mycobacterium tuberculosis multidrug-resistant (MDR) strain; assay: microbe, parasite or virus in culture; type: cell-based; conditions: 192 h, read-out: Anti-tubercular activity against Mycobacterium tuberculosis (MIC), MDR
[2] = test system: Mycobacterium tuberculosis extensively drug-resistant (XDR) strain; assay: microbe, parasite or virus in culture; type: cell-based; conditions: 192 h, read-out: Anti-tubercular activity against Mycobacterium tuberculosis (MIC), XDR

**Q.** `N#Cc1ccc(C(=O)C[n+]2ccc(C#N)cc2)cc1.[Br-]` [Compound 3f, 4-Cyano-1-(2-(4-cyanophenyl)-2-oxoethyl)pyridin-1-ium bromide] was tested. Which MIC [1] did it give?
**A.** Its MIC is 4 µg/mL.

**Q.** What about the MIC [2] of the same molecule?
**A.** Its MIC is 32 µg/mL.
